Patent EP2289882A1, “3-oxopiperazinium derivatives as agonists of nerve growth factor and their use as medicaments” (Institut d'Investigacions Biomédiques August PI I Sunyer, priority 2009, dated 2011)

Legend:
PC12 cells = assay: PC12 cell differentiation (neurite outgrowth); format: cell-based; settings: 3 days, 2 ng/ml to 50 µg/ml, reduced serum (0.5% FBS and 1% HS); compared with NGF 100 ng/ml
Procedure: PC 12 cell differentiation was measured by plating cells onto collagen-coated 24-wells plates. NGF (100 ng/ml) or the small chemicals at different concentrations were added and the percentage of cells with neurite processes greater than two cell bodies in length were counted after relevant treatment. For each experiment at least 300 cells were randomly measured (Burstein and Greene, 1978). Cell culture. PC12 cells were maintained at 37°C in DMEM supplemented with 2.5% FBS, 15% of Horse serum (HS) and penicillin/streptomycin in a humidified 5% CO2 incubator. The cells were grown on 60-and 100-mm tissue culture dishes (Becton Dickinson). PC 12 cells were cultured for 3 days in the presence of the peptoids (from 2 ng/ml to 50 µg/ml) under reduced serum conditions (0.5% FBS and 1% HS).

RN22 cells = assay: RN22 cell survival assay under CuSO4 stress (MTT); format: cell-based, rat; settings: CuSO4 150 µM stress, 1 ng/ml - 10 µg/ml, 24 h; RN22 expresses p75 but not TrkA
Procedure: Compounds identified from the initial library screening were also tested to assess their capacity to promote cell survival. To delineate p75 signalling independent of TrkA, we used a rat schwannoma cell line (RN22) expressing p75, but not TrkA, (Gentry et al., 2000). Cell culture. The rat schawnnoma cell line RN22 was cultured in 5% CO2 at 37°C in Dulbecco's modified Eagle's medium (DMEM) with 10% fetal bovine serum (FBS) and penicillin/streptomycin. RN22 cells were plated at 20,000 cells/well on a 24-well plate in DMEM alone and after allowing the cells to adhere for 3 days, cupper sulphate (CuSO4) (150 µM) was added with or without NGF (100 ng/ml) or the peptidomimetic molecules A26-23, A26-24 and A28-A6 at different concentrations (1 ng/ml - 10 µg/ml) to generate stress and cell death. After 24 h cell viability was studied by determining the amount of yellow MTT (Sigma) that was reduced to insoluble purple formazan. After removing the medium, the water-insoluble formazan was solubilised with DMSO (Sigma), and the dissolved material was measured spectrophotometrically at a wavelength of 570 nm, subtracting the background at 650 nm (Frade, 2005).

| Compound | differentiation of PC12 cells (percentage of cells with neurite processes greater than two cell bodies in length) (PC12 cells) | survival of RN22 cells (cell viability, MTT) (RN22 cells) |
| --- | --- | --- |
| C[N+]1(C)CCN(CC(=O)NCCc2ccc([N+](=O)[O-])cc2)C(=O)C1.[Cl-] [A26-23, 1,1-dimethyl-4-[2-(4-nitrophenethylamino) -2-oxoethyl] -3-oxopiperazinium chloride] | induce the differentiation of PC12 cells at different concentrations to an extent substantially comparable with that induce by NGF | not to promote survival of RN22 cells |
| 8-[2-(2-(5-methyl-1H-indol-2-yl)ethylamino)-2-oxoethyl]-7-oxo-8-aza-5-azoniaspiro[4.5]decane [A28-A6] | induce the differentiation of PC12 cells at different concentrations to an extent substantially comparable with that induce by NGF | not to promote survival of RN22 cells |
| C[N+]1(Cc2ccccc2)CCN(CC(=O)NCCc2ccc([N+](=O)[O-])cc2)C(=O)C1.[Cl-] (stereo not drawn) [A26-64, 1-benzyl-1-methyl-4-[2-(4-nitrophenethylamino)-2-oxoethyl]-3-oxopiperazinium chloride] | induce the differentiation of PC12 cells at different concentrations to an extent substantially comparable with that induce by NGF | not to promote survival of RN22 cells |
